Reference: patent US7608581B2, “Biofunctional, antimicrobial coatings for medical devices” (Affinergy, Inc., priority 2004, dated 2009)

Details: as compared to SEQ ID NO:73 (two cysteines substituted by serine)

SDKSHKHWYSYESKYGGS [SEQ ID NO:74]
reduction in binding affinity: 10 fold
